Patent US20230125667A1, “NOVEL TDZD ANALOGS AS AGENTS THAT DELAY, PREVENT, OR REVERSE AGE-ASSOCIATED DISEASES AND AS ANTI-CANCER AND ANTILEUKEMIC AGENTS” (United States Government as represented by the Department …, priority 2020, published 2023)

Tests used:
[1] = test system: SH-SY5Y-APPSw cells; assay: Thioflavin-T staining of amyloid-like aggregates in SH-SY5Y-APPSw cells; format: cell-based, human
Method: Several TDZD-conjugated drugs (putative GSK-3 inhibitors) were evaluated for their ability to reduce accumulation of protein aggregates, and for protection against aggregation-associated end-points in the following model systems: (i.) SH-SY5Y-APPSw, a neuroblastoma cell line expressing the Swedish mutation of Amyloid Precursor Protein (APPSw), and thus predisposed to form β-amyloid deposits; (ii.) C. elegans strain CL4176, a model of Alzheimer-like amyloidopathy that can be induced to express human Aβ1-42 in muscle, or may express it at a lower level without induction; (iii.) C. elegans strain AM141, a model of Huntington-like polyglutamine aggregation that constitutively expresses Q40::YFP (a tract of 40 glutamines fused in-frame to yellow fluorescent protein) in muscle cells and forms aggregates progressively with adult aging. The TDZD analog PNR-962 (a putative GSK-3 inhibitor) and other related compounds (not shown) were protective in all aggregation assays.
First, the effects of TDZD analogues were tested on the human neuroblastoma cell line SH-SY5Y-APPSw, a model of Alzheimer-like amyloid aggregation expressing the “Sw” mutant form of Amyloid Precursor Protein, APP. These drugs all produced significant reductions in amyloid-like aggregates, by 30-50% as quantified by thioflavin-T staining intensity (data for PNR-962 are shown in FIG. 4). Modified TDZD-8 analogues PNR-962 and BSK-179 are more anti-aggregative than TDZD-8, lowering total amyloid-staining intensity by a further 14% (data not shown).
Following previously described experimental procedures (Liu, et al. (2005). S100B-induced microglial and neuronal IL-1 expression is mediated by cell type-specific transcription factors. Journal of Neurochemistry. 92(3): 546-553), SH-SY5Y-APPSw neuronal cells expressing an aggregation-prone double mutant of amyloid precursor protein (APPSw) were cultured in DMEM plus 10% (v/v) fetal bovine serum (FBS) at 37° C. Cells were suspended in trypsin/EDTA and rinsed in PBS prior to re-plating or harvesting. […] Human neuroblastoma cells were treated with PNR962, either simultaneous with sAPPα or beginning 1 h prior to sAPPα addition (pre-treatment) in order to ascertain the protective benefits of PNR962 on protein aggregation in human neuroblastoma cell lines. A similar experimental procedure was followed to examine the effect of treatment with these analogs on non-neuronal human cells, exposing human embryonic kidney cells (HEK) that express tau-like aggregates (found in AD-associated diseases) to 0.001, 0.01, and 1-μM doses of TDZD-8 and its analogues.
To observe the protective effects of the novel TDZD analogs on protein aggregation in SY5Y-APPSw cells, using DMEM medium containing 10% fetal calf serum in […], cells were cultured at 37′C for 26 hrs allowing cells to approximately double in number. After 48 h of cell incubation in the presence of specified concentrations of drug or vehicle, cells were fixed 15 min in formaldehyde (4% v/v), washed, and stained 20 min at ˜22° C. in a dark container with 0.1% w/v Thioflavin T mixed with DAPI (1 μg/ml; Life Technologies, Grand Island, N.Y., USA). […] The intensity of aggregate/thioflavin-T fluorescence per field was quantified via an Image J plug-in developed in-house, and normalized to the number of DAPI^+ nuclei counted per field, to obtain an average intensity of aggregates per cell for each treatment.

[2] = test system: C. elegans strain CL4176; assay: Amyloid-associated paralysis in C. elegans strain CL4176; format: in vivo; conditions: after induction of Aβ1-42 in muscle (FIG. 5)
[3] = test system: wild-type nematodes; assay: Lifespan of C. elegans; format: in vivo; conditions: FIG. 8
Method: It was previously shown that several interventions that improve age-associated phenotypes also modulate lifespan (Ayyadevara et al. (2017) Antioxid Redox Signal. 27(17): 1383-1396; Ayyadevara et al. (2005) Aging Cell. 4(5): 257-271). The lifespan was assessed in C. elegans, either mock-treated or exposed to TDZD analogues. PNR-962 and BSK-179 extended the lifespan of wild-type nematodes to an identical degree, increasing the mean by roughly 25-30% (P<0.001; FIG. 8).
To obtain synchronized eggs for lifespan studies, worms were maintained for 2 generations, free of contamination and starvation. Healthy, well-fed adult worms from the 2nd generation were then lysed, and eggs placed on plates with appropriate doses of TDZD analogue PNR962, or DMSO vehicle alone (for a final concentration of 0.02% v/v DMSO). At the L4 larval stage, worms were transferred daily to fresh plates for 7 days, and thereafter on alternate days until all the worms are dead. C. elegans that moved spontaneously or responded to gentle prodding were scored as alive. For the mortality computation, worms that were lost for reasons other than natural death were censored. The methods described were adopted from previously described experimental procedures (Ayyadevara, et al. (2016) PIP3-binding proteins promote age-dependent protein aggregation and limit survival in C. elegans. Oncotarget, 7(31): 48870-48886; Bharill, et al. (2013) Extreme Depletion of PIP3 Accompanies the Increased Life Span and Stress Tolerance of PI3K-null C. elegans Mutants. Frontiers in Genetics, 4).

[4] = target: T1, GSK3β (Homo sapiens, UniProt P49841); assay: GSK3β activity (kinase) assay in vitro; format: biochemical; conditions: dose-response curves (FIG. 21)
T1 construct: purchased BPS Bioscience
T1 sequence (P49841 whole entry): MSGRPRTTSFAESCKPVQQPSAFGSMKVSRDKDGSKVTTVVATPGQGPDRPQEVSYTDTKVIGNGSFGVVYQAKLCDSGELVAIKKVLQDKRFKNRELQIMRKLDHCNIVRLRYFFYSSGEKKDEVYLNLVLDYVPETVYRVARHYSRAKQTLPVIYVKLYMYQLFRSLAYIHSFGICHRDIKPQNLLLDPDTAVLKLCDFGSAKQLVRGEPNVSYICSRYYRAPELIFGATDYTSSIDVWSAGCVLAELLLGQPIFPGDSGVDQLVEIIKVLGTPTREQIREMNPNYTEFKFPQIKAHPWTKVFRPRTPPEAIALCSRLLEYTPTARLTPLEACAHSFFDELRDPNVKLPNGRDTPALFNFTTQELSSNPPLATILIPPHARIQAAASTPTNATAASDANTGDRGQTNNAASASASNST
Method: The GSK3β activity assay kit (BPS Bioscience) was used, with modification of the manufacturer's protocol. The assay was done in three replicates at three doses (0.01, 0.1, and 1 μM) of each inhibitor (TDZD8, PNR962) in a 96-well plate, using 1% DMSO (final solvent concentration) as the drug-free control. The kinase assay reaction was incubated for 45 minutes at 30′C and Kinase-Glo Max Assay (Promega) was then added and incubated for 15 minutes at room temperature. A negative control contained all the reagents except the test inhibitors and GSK3β enzyme and positive control contained all reagents except the test inhibitor. SpectraMax M3 (Molecular Devices, LLC) was used as a microplate reader. The luminescence negative control reading was used as 0% activity, positive control reading was used as 100% activity and kinase assay was based on the fact that all the reading in wells with test inhibitor, should lie between these values of negative control and positive controls. GSK3β inhibitions were calculated after subtracting negative control values from all the wells and graphs were generated using GraphPad Prism.
The best predicted inhibitors were synthesized, and screened in both human neuronal cells, and in C. elegans models of neurodegeneration. These compounds were also tested for their ability to inhibit GSK3β activity in vitro.

ability to inhibit GSK3β activity in vitro [4]: markedly superior to TDZD8
Compound: O=c1sn(CCI)c(=O)n1Cc1ccccc1 [PNR-962]
protein aggregation ([1]; 5 μM (FIG. 4)): reduces protein aggregation
further lowering of total amyloid-staining intensity relative to TDZD-8 ([1]; data not shown): 14%
paralysis rescued / reduced [2]: > 75%
lifespan [3]: increased
